# Patent US10294202B2, “Pyrrolidinones as herbicides” (FMC Corporation, priority 2013, dated 2019)
# Legend:
# corn = test: Test A pre-/postemergence herbicide test; format: in vivo, Zea mays
# Method in brief: (§1)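 Scoring was visual, relative to untreated controls, on a 0–100 scale after about 10 greenhouse days. Preemergence treatment used a directed soil spray over seeded loam/sand; postemergence treatment targeted one- to two-leaf plants of 2–10 cm.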
# pigweed [1] = test: Test C pre-/postemergence herbicide test; format: in vivo, Amaranthus retroflexus
# Method in brief: (§2)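 Response scores range from 0, meaning no effect, to 100, meaning complete control, assigned visually by comparison with controls roughly two weeks (13 to 15 days) after spraying. Applications were made preemergence to seeded loam–sand soil and postemergence to 1- to 4-leaf plants.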
# waterhemp = test: Test C pre-/postemergence herbicide test; format: in vivo, Amaranthus rudis
# Method in brief: as §2
# johnsongrass = test: Test C pre-/postemergence herbicide test; format: in vivo, Sorghum halepense
# Method in brief: as §2
# pigweed [2] = test: Test A pre-/postemergence herbicide test; format: in vivo, Amaranthus retroflexus
# Method in brief: as §1
# ryegrass, Italian = test: Test C pre-/postemergence herbicide test; format: in vivo, Lolium multiflorum
# Method in brief: as §2
# galium = test: Test C pre-/postemergence herbicide test; format: in vivo, Galium aparine; conditions: Preemergence; for Plant response rating (scale of 0 to 100), Galium: 250 g ai/ha
# Method in brief: as §2
# rice = test: Test B flooded paddy test; format: in vivo, Oryza sativa; conditions: Flood, scale of 0 to 100 where 0 is no effect and 100 is complete control
# Method in brief: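 Scoring: visual, compared with untreated controls, 0 = no effect through 100 = complete control, taken 13 to 15 days after treatment in the greenhouse. Compounds had been added to paddy water over soil flooded 3 cm deep at the plants' 2-leaf stage.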
# giant foxtail = test: Test A pre-/postemergence herbicide test; format: in vivo, Setaria faberii
# Method in brief: as §1
# nutsedge, yellow = test: Test C pre-/postemergence herbicide test; format: in vivo, Cyperus esculentus
# Method in brief: as §2
# ragweed = test: Test C pre-/postemergence herbicide test; format: in vivo, Ambrosia elatior
# Method in brief: as §2
# [3] = Postemergence, 125 g ai/ha, 0 to 100 scale, 0 no effect, 100 complete control
# [4] = Postemergence, 500 g ai/ha, 0 to 100 scale (0 no effect, 100 complete control)
# [5] = Preemergence, 125 g ai/ha, visual rating on 0 to 100 scale (0 no effect, 100 complete control)
# [6] = preemergence, 500 g ai/ha, 0 to 100 scale
# [7] = Preemergence, 31 g ai/ha, scale 0 to 100, 0 is no effect and 100 is complete control
# [8] = Preemergence, 62 g ai/ha, scale 0 to 100
# [9] = Preemergence, 125 g ai/ha, scale 0 to 100 (0 no effect, 100 complete control)
# [10] = 125 g ai/ha, scale 0 to 100 (0 no effect, 100 complete control)
# [11] = Postemergence, 125 g ai/ha, visual rating on 0 to 100 scale (0 no effect, 100 complete control), approx. 10 days
# [12] = Postemergence, 31 g ai/ha, scale 0 to 100 (0 no effect, 100 complete control)
# [13] = Postemergence, 62 g ai/ha, scale 0 (no effect) to 100 (complete control)
# [14] = Postemergence, 125 g ai/ha, scale 0 to 100 (0 no effect, 100 complete control)
# [15] = Postemergence, 250 g ai/ha, scale 0 to 100 (0 no effect, 100 complete control)
# [16] = Preemergence, 62 g ai/ha, scale 0 to 100 (0 no effect, 100 complete control)
# [17] = Preemergence, 125 g ai/ha, 0 to 100 scale where 0 is no effect and 100 is complete control
# [18] = Preemergence, 500 g ai/ha, visual rating on 0 to 100 scale (0 no effect, 100 complete control)
smiles,measurement,setting,value
O=C1NCC(c2ccc(F)c(C(F)(F)F)c2)C1C(=O)Nc1cccc(F)c1F (racemic) [Compound 77],"Plant response rating, Corn",corn; [3],50
same,"Plant response rating, Corn",corn; [4],70
same,Corn plant response rating,corn; [5],0
same,"Plant response rating, Corn",corn; [6],30
same,Pigweed plant response rating,pigweed [1]; [7],0
same,"Plant response rating, Pigweed",pigweed [1]; [8],60
same,"Plant response rating, Pigweed",pigweed [1]; [9],60
same,"Plant response rating (scale of 0 to 100), Pigweed","pigweed [1]; Preemergence, 250 g ai/ha",85
same,Waterhemp plant response rating,waterhemp; [7],40
same,"Plant response rating, Waterhemp",waterhemp; [8],40
same,"Plant response rating, Waterhemp",waterhemp; [9],70
same,"Plant response rating (scale of 0 to 100), Waterhemp","waterhemp; Preemergence, 250 g ai/ha",85
same,Johnsongrass plant response rating,johnsongrass; [7],20
same,"Plant response rating, Johnsongrass",johnsongrass; [8],55
same,"Plant response rating, Johnsongrass",johnsongrass; [9],75
same,"Plant response rating (scale of 0 to 100), Johnsongrass","johnsongrass; Preemergence, 250 g ai/ha",90
same,"Plant response rating, Pigweed",pigweed [2]; [3],40
same,"Plant response rating, Pigweed",pigweed [2]; [4],50
same,Pigweed plant response rating,pigweed [2]; [5],40
same,"Plant response rating, Pigweed",pigweed [2]; [6],70
same,"Ryegrass, Italian plant response rating","ryegrass, Italian; [7]",40
same,"Plant response rating, Ryegrass, Italian","ryegrass, Italian; [8]",40
same,"Plant response rating, Ryegrass, Italian","ryegrass, Italian; [9]",40
same,"Plant response rating (scale of 0 to 100), Ryegrass, Italian","ryegrass, Italian; Preemergence, 250 g ai/ha",45
same,"Plant response rating, Galium","galium; 62 g ai/ha, scale 0 to 100",5
same,"Plant response rating, Galium",galium; [10],80
same,"Plant response rating (scale of 0 to 100), Galium",galium,90
same,"Plant response rating, Rice",rice; 250 g ai/ha,10
same,"Plant response rating, Foxtail, Giant",giant foxtail; [3],80
same,"Plant response rating, Foxtail, Giant",giant foxtail; [4],80
same,"Foxtail, Giant plant response rating",giant foxtail; [5],90
same,"Plant response rating, Foxtail, Giant",giant foxtail; [6],90
same,"Nutsedge, Yellow plant response rating","nutsedge, yellow; [7]",0
same,"Plant response rating, Nutsedge, Yellow","nutsedge, yellow; [8]",0
same,"Plant response rating, Nutsedge, Yellow","nutsedge, yellow; [9]",0
same,"Plant response rating (scale of 0 to 100), Nutsedge, Yellow","nutsedge, yellow; Preemergence, 250 g ai/ha",0
CN1CC(c2cccc(C(F)(F)F)c2)C(C(=O)Nc2cccc(F)c2F)C1=O (stereo not drawn) [Compound 305],"Plant response rating, Corn",corn; [11],70
same,"Plant response rating, Corn",corn; [4],70
same,"Plant response rating, Pigweed",pigweed [1]; [12],55
same,"Plant response rating, Pigweed",pigweed [1]; [13],60
same,"Plant response rating, Pigweed",pigweed [1]; [14],65
same,"Plant response rating, Pigweed",pigweed [1]; [15],65
same,Pigweed plant response rating,pigweed [1]; [7],10
same,Pigweed plant response rating,pigweed [1]; [16],70
same,"Plant response rating, Pigweed",pigweed [1]; [9],80
same,"Plant response rating (scale of 0 to 100), Pigweed","pigweed [1]; Preemergence, 250 g ai/ha",85
same,"Plant response rating, Ragweed",ragweed; [12],0
same,"Plant response rating, Ragweed",ragweed; [13],0
same,"Plant response rating, Ragweed",ragweed; [14],40
same,"Plant response rating, Ragweed",ragweed; [15],45
same,Ragweed plant response rating,ragweed; [7],0
same,Ragweed plant response rating,ragweed; [16],15
same,"Plant response rating, Ragweed",ragweed; [9],35
same,"Plant response rating (scale of 0 to 100), Ragweed","ragweed; Preemergence, 250 g ai/ha",75
same,"Plant response rating, Waterhemp",waterhemp; [12],10
same,"Plant response rating, Waterhemp",waterhemp; [13],10
same,"Plant response rating, Waterhemp",waterhemp; [14],35
same,"Plant response rating, Waterhemp",waterhemp; [15],40
same,Waterhemp plant response rating,waterhemp; [7],40
same,Waterhemp plant response rating,waterhemp; [16],65
same,"Plant response rating, Waterhemp",waterhemp; [9],80
same,"Plant response rating (scale of 0 to 100), Waterhemp","waterhemp; Preemergence, 250 g ai/ha",80
same,"Plant response rating, Johnsongrass",johnsongrass; [12],0
same,"Plant response rating, Johnsongrass",johnsongrass; [13],0
same,"Plant response rating, Johnsongrass",johnsongrass; [14],20
same,"Plant response rating, Johnsongrass",johnsongrass; [15],20
same,Johnsongrass plant response rating,johnsongrass; [7],80
same,Johnsongrass plant response rating,johnsongrass; [16],85
same,"Plant response rating, Johnsongrass",johnsongrass; [9],90
same,"Plant response rating (scale of 0 to 100), Johnsongrass","johnsongrass; Preemergence, 250 g ai/ha",90
same,"Plant response rating, Pigweed",pigweed [2]; [11],60
same,"Plant response rating, Pigweed",pigweed [2]; [4],70
same,"Plant response rating, Pigweed",pigweed [2]; [17],0
same,Pigweed plant response rating,pigweed [2]; [18],40
same,"Plant response rating, Ryegrass, Italian","ryegrass, Italian; [12]",0
same,"Plant response rating, Ryegrass, Italian","ryegrass, Italian; [13]",0
same,"Plant response rating, Ryegrass, Italian","ryegrass, Italian; [14]",0
same,"Plant response rating, Ryegrass, Italian","ryegrass, Italian; [15]",45
same,"Ryegrass, Italian plant response rating","ryegrass, Italian; [7]",15
same,"Ryegrass, Italian plant response rating","ryegrass, Italian; [16]",50
same,"Plant response rating, Ryegrass, Italian","ryegrass, Italian; [9]",50
same,"Plant response rating (scale of 0 to 100), Ryegrass, Italian","ryegrass, Italian; Preemergence, 250 g ai/ha",80
same,Galium plant response rating,"galium; 31 g ai/ha, scale 0 to 100, 0 is no effect and 100 is complete control",80
same,Galium plant response rating,"galium; 62 g ai/ha, scale 0 to 100 (0 no effect, 100 complete control)",80
same,"Plant response rating, Galium",galium; [10],90
same,"Plant response rating (scale of 0 to 100), Galium",galium,90
same,"Plant response rating, Rice",rice; 500 g ai/ha,15
same,"Plant response rating, Foxtail, Giant",giant foxtail; [11],80
same,"Plant response rating, Foxtail, Giant",giant foxtail; [4],80
same,"Plant response rating, Foxtail, Giant",giant foxtail; [17],90
same,"Foxtail, Giant plant response rating",giant foxtail; [18],90
same,"Plant response rating, Nutsedge, Yellow","nutsedge, yellow; [12]",0
same,"Plant response rating, Nutsedge, Yellow","nutsedge, yellow; [13]",0
same,"Plant response rating, Nutsedge, Yellow","nutsedge, yellow; [14]",0
same,"Plant response rating, Nutsedge, Yellow","nutsedge, yellow; [15]",0
same,"Nutsedge, Yellow plant response rating","nutsedge, yellow; [7]",0
same,"Nutsedge, Yellow plant response rating","nutsedge, yellow; [16]",0
same,"Plant response rating, Nutsedge, Yellow","nutsedge, yellow; [9]",0
same,"Plant response rating (scale of 0 to 100), Nutsedge, Yellow","nutsedge, yellow; Preemergence, 250 g ai/ha",100
